In paper PMC9719519, “Non-classical ferroptosis inhibition by a small molecule targeting PHB2” (Nature Communications, 2022):

Experiments:
Assay in all cases: biochemical
Design in all cases: Eurofins recombinant human kinase profiling, remaining kinase activity as % of control, 10 uM ATP
Conditions in all cases: ATP 10 uM; read-out: %Ctrl@10 μM
HIPK2(h) = HIPK2(h) (Homo sapiens, UniProt Q9H2X6)
In short: (§1)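 Activity measured in a commercial panel of 401 recombinant human protein kinases run as a kinase profiling service.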

TGFBR2(h) = TGFBR2(h) (Homo sapiens, UniProt P37173)
In short: as §1

LIMK1(h) = LIMK1(h) (Homo sapiens, UniProt P53667)
Sequence of LIMK1(h) (P53667 whole entry): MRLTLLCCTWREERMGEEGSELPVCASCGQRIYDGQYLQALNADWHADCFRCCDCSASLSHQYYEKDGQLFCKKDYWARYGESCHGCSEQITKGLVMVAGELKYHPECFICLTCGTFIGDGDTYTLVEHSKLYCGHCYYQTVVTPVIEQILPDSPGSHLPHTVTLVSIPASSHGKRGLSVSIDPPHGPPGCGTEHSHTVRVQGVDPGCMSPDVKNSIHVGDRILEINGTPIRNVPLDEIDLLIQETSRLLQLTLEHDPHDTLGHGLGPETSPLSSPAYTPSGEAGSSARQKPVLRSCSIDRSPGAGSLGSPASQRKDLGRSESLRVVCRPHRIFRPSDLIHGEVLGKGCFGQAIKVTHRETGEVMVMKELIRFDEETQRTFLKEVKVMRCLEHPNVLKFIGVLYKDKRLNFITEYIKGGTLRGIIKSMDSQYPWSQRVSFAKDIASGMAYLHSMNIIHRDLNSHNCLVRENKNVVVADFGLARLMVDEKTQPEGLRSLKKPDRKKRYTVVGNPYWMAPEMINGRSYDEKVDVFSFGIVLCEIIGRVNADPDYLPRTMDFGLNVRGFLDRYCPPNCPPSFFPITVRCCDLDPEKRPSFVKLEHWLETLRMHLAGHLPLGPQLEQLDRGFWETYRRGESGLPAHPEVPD
In short: as §1

CK2α2(h) = biological target: T1, CK2α2(h) (Homo sapiens, UniProt P19784)
T1 construct: gene CSNK2A2
T1 sequence (P19784 whole entry): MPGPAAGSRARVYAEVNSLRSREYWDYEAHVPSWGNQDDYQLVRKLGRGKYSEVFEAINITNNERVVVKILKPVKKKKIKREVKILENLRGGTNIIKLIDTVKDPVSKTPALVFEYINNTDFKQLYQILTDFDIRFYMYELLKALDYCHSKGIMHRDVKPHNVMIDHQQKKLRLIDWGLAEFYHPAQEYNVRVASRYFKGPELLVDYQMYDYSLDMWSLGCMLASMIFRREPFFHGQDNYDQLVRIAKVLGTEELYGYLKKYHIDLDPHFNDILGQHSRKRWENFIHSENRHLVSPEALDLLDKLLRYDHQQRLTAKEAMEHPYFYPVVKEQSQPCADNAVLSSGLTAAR
In short: as §1

MYO3B(h) = MYO3B(h) (Homo sapiens, UniProt Q8WXR4)
In short: as §1

IGF-1R(h), activated = biological target: T2, IGF-1R(h), activated (Homo sapiens, UniProt P08069)
T2 construct: gene IGF1R
In short: as §1

CDKL3(h) = CDKL3(h) (Homo sapiens, UniProt Q8IVW4)
Sequence of CDKL3(h) (Q8IVW4 whole entry): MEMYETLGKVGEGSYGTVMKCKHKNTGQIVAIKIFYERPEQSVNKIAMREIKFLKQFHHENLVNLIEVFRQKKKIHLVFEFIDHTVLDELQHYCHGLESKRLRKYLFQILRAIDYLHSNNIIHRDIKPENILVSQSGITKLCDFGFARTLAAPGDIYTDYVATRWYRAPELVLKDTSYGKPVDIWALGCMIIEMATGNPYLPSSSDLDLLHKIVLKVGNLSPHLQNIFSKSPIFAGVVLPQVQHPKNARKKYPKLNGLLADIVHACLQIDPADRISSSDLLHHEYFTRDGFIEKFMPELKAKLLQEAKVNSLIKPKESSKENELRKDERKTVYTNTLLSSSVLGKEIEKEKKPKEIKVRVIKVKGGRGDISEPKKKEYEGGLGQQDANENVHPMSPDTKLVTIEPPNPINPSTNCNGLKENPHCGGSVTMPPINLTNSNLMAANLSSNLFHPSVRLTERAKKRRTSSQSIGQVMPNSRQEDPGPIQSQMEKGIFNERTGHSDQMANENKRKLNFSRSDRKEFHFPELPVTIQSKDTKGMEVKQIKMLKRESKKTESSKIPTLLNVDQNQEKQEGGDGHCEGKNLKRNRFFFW
In short: as §1

CK1γ1(h) = biological target: T3, CK1γ1(h) (Homo sapiens, UniProt Q9HCP0)
T3 construct: gene CSNK1G1
T3 sequence (Q9HCP0 whole entry): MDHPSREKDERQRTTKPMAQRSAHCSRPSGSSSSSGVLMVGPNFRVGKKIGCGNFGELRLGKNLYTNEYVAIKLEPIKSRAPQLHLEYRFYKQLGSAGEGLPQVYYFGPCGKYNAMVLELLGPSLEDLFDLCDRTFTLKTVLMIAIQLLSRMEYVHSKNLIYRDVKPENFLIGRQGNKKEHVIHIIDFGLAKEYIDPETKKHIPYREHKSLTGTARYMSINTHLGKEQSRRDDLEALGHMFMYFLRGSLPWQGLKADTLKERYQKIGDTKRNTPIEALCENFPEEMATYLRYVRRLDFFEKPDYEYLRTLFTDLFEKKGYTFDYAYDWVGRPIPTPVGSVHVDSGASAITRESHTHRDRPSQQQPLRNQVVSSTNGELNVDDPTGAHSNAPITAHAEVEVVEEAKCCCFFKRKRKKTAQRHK
In short: as §1

EGFR(L861Q)(h) = EGFR(L861Q)(h) (Homo sapiens, UniProt P00533, L861Q)
In short: as §1

DDR2(h) = DDR2(h) (Homo sapiens, UniProt Q16832)
In short: as §1

RIPK1(h) = RIPK1(h) (Homo sapiens, UniProt Q13546)
In short: as §1

Abl(Y253F)(h) = biological target: T4, Abl(Y253F)(h) (Homo sapiens, UniProt P00519, Y253F)
T4 construct: gene ABL1
In short: as §1

SIK(h) = biological target: T5, SIK(h) (Homo sapiens, UniProt P57059)
T5 construct: gene SIK1
T5 sequence (P57059 whole entry): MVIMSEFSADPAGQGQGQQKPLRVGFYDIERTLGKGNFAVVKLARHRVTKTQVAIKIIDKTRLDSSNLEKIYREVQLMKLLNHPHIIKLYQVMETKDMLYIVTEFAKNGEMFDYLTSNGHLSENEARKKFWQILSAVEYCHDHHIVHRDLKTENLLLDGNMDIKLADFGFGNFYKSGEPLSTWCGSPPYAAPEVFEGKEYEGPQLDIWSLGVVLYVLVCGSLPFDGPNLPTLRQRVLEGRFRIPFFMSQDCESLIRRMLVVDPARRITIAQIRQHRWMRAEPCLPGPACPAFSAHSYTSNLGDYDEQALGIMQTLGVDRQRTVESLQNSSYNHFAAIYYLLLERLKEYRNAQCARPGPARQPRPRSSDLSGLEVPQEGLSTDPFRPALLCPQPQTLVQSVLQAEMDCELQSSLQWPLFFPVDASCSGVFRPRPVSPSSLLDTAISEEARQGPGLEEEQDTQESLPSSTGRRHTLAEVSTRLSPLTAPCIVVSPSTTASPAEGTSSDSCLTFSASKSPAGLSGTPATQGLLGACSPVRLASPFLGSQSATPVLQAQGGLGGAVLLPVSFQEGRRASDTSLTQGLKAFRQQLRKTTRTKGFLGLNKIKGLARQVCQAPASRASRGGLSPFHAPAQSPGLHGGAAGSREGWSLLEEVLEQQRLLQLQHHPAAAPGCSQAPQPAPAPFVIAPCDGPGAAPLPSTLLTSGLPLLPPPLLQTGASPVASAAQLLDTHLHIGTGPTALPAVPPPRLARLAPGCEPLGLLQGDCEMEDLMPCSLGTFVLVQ
In short: as §1

eEF-2K(h) = biological target: T6, eEF-2K(h) (Homo sapiens, UniProt O00418)
T6 construct: gene EEF2K
In short: as §1

ALK(h) = ALK(h) (Homo sapiens, UniProt Q9UM73)
In short: as §1

MSSK1(h) = biological target: T7, MSSK1(h) (Homo sapiens, UniProt Q9UPE1)
T7 construct: gene SRPK3
In short: as §1

Mer(h) = biological target: T8, Mer(h) (Homo sapiens, UniProt Q12866)
T8 construct: gene MERTK
T8 sequence (Q12866 whole entry): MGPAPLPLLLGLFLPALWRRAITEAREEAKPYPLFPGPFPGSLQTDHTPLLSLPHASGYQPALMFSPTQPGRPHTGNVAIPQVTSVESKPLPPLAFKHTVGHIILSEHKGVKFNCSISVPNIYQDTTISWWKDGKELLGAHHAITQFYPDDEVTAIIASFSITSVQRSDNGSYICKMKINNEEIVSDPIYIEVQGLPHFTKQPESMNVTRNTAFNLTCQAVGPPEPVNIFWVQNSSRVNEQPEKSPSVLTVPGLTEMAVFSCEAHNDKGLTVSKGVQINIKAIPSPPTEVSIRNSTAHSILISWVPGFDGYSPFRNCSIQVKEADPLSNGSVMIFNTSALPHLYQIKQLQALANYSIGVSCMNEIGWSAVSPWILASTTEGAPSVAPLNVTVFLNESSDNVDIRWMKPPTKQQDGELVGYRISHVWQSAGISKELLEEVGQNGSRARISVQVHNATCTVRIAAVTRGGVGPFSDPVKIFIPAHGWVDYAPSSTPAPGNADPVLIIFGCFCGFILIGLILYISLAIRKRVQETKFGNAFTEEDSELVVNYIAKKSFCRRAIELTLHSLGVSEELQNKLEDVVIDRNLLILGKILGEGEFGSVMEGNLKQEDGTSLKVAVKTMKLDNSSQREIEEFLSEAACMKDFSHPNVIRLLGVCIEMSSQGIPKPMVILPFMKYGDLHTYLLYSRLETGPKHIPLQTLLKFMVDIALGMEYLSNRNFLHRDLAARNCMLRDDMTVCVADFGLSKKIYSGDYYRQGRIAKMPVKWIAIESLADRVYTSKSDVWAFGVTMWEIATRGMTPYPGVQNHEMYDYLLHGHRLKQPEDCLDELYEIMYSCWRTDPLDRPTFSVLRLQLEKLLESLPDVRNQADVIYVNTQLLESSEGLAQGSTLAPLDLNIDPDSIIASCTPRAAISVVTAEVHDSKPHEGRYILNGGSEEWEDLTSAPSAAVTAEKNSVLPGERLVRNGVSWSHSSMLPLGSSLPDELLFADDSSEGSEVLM
In short: as §1

MOK(h) = MOK(h) (Homo sapiens, UniProt Q9UQ07)
Sequence of MOK(h) (Q9UQ07 whole entry): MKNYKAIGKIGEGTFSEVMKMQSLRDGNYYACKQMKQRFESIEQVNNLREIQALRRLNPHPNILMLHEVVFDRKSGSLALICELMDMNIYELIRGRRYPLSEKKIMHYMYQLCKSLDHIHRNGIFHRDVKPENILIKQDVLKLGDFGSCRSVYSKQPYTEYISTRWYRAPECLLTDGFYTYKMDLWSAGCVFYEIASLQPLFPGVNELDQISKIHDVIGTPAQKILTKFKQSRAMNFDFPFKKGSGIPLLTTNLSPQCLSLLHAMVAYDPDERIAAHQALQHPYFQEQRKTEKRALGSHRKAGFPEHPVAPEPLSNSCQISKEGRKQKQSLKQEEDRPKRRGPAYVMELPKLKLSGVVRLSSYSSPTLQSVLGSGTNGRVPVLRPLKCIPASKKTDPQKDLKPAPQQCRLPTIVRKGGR
In short: as §1

NEK7(h) = NEK7(h) (Homo sapiens, UniProt Q8TDX7)
Sequence of NEK7(h) (Q8TDX7 whole entry): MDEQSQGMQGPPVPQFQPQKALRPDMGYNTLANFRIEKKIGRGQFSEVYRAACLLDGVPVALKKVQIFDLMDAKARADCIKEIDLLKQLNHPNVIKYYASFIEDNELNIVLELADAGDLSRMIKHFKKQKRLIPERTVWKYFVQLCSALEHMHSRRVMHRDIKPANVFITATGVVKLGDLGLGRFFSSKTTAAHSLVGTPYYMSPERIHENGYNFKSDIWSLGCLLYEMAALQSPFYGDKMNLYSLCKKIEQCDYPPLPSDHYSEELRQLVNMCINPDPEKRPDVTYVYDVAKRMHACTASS
In short: as §1

Fes(h) = Fes(h) (Homo sapiens, UniProt P07332)
In short: as §1

KDR(h) = KDR(h) (Homo sapiens, UniProt P35968)
In short: as §1

ZIPK(h) = biological target: T9, ZIPK(h) (Homo sapiens, UniProt O43293)
T9 construct: gene DAPK3
T9 sequence (O43293 whole entry): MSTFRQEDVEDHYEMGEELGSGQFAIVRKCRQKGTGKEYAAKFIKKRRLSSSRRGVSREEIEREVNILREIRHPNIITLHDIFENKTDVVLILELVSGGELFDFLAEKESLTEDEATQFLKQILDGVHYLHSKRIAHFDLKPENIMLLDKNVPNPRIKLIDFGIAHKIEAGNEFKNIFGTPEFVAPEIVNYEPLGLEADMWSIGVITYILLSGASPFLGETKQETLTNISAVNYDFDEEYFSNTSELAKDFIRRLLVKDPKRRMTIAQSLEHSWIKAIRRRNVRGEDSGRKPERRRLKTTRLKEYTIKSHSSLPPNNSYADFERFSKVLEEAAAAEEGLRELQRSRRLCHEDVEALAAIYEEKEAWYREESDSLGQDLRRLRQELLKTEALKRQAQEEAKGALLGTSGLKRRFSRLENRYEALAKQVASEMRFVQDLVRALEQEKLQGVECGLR
In short: as §1

Aurora-A(h) = biological target: T10, Aurora-A(h) (Homo sapiens, UniProt O14965)
T10 construct: gene AURKA
In short: as §1

C1=C(c2nc(-c3cnn(C4CCNCC4)c3)cn3cc(-c4ccccc4)nc23)CCOC1 [YL-939]
remaining activity at 10 µM (HIPK2(h)): 90% | remaining activity at 10 µM (TGFBR2(h)): 97% | remaining activity at 10 µM (LIMK1(h)): 86% | remaining activity at 10 µM (CK2α2(h)): 98% | remaining activity at 10 µM (MYO3B(h)): 89% | remaining activity at 10 µM (IGF-1R(h), activated): 95% | remaining activity at 10 µM (CDKL3(h)): 82% | remaining activity at 10 µM (CK1γ1(h)): 112% | remaining activity at 10 µM (EGFR(L861Q)(h)): 61% | remaining activity at 10 µM (DDR2(h)): 95% | remaining activity at 10 µM (RIPK1(h)): 106% | remaining activity at 10 µM (Abl(Y253F)(h)): 123% | remaining activity at 10 µM (SIK(h)): 100% | remaining activity at 10 µM (eEF-2K(h)): 93% | remaining activity at 10 µM (ALK(h)): 106% | remaining activity at 10 µM (MSSK1(h)): 87% | remaining activity at 10 µM (Mer(h)): 78% | remaining activity at 10 µM (MOK(h)): 88% | remaining activity at 10 µM (NEK7(h)): 89% | remaining activity at 10 µM (Fes(h)): 86% | remaining activity at 10 µM (KDR(h)): 108% | remaining activity at 10 µM (ZIPK(h)): 88% | remaining activity at 10 µM (Aurora-A(h)): 111%
